From US20210332408A1, “SYSTEMS AND METHODS FOR OPTIMIZATION OF ENZYMES” (Vader Nanotechnologies Inc., priority 2020, published 2021)

Test system: bacterial growth
Experiment: Maximum PFNA experiment, image processing of bacterial growth (FIG. 6)
Assay type: cell-based
Conditions: FIG. 6, images at T=0, 10, 80 hrs

Structure (SMILES): O=C(O)C(F)(F)C(F)(F)C(F)(F)C(F)(F)C(F)(F)C(F)(F)C(F)(F)C(F)(F)F [PFNA Solution, Perfluorononanoic acid (PFNA)]
- bacterial growth with increasing PFNA concentration: slows bacterial growth
